Converted amounts (≈) assume the structure as drawn.
Legend:
[1] = Acute oral toxicity (DL-50), 14-day observation; conditions: mouse, in vivo, mice, per os, 14 days observation
Description: (§1) Assays were performed on batches of mice (males and females) weighing each from 18 to 20 g and receiving the compounds to be tested at the doses of 0.5 g/kg, 0.8 g/kg, 1 g/kg, 2 g/kg, 3 g/kg and 4 g/kg per os in an aqueous medium containing 20 g/l of carboxymethylcellulose, the animals being observed during the 14 days following administration.

[2] = Tolerance: diarrhoea after oral administration; format: in vivo; conditions: mice, per os
Description: as §1

[3] = Tolerance: rectal temperature after oral administration; format: in vivo; conditions: mice, per os, from the dose of 2 g/kg
Description: as §1

[4] = Tolerance: weight / liver hypertrophy after oral administration; format: in vivo; conditions: mice, per os, from the dose of 0.8 g/kg
Description: as §1

[5] = test system: Bacillus subtilis ATCC 6633; test: Antibacterial activity in vitro (MIC), dilution technique; format: cell-based; conditions: ATCC6633
Description: (§2) The antibacterial activity was studied in vitro according to the usual classical dilution techinque with respect to several strains, in order to determine the minimal inhibiting concentration (M.I.C.) i.e. the minimal bacteriostatic concentration.
(§3) The results thus obtained are tabulated in table II hereinafter, the strains used being those of the catalogues of the "Institut Pasteur" of Paris, France (abbreviation: CIP), the "Centre International de Distribution de Souches et d'Information sur les Types Microbiens de Lausanne" (abbreviation: La) and the "American Type Culture Collection" (abbreviation: ATCC).

[6] = test system: Diplococcus pneumoniae La 209; test: as above; format: cell-based; conditions: Streptococcus pneumoniae, LA209
Description: as §2, §3

[7] = test system: Diplococcus pneumoniae La 210; test: as above; format: cell-based; conditions: Streptococcus pneumoniae, LA210
Description: as §2, §3

[8] = test system: Staphylococcus aureus ATCC 6538 P; test: as above; format: cell-based; conditions: ATCC6538
Description: as §2, §3

[9] = test system: Staphylococcus aureus La 634; test: as above; format: cell-based; conditions: LA634
Description: as §2, §3

[10] = test system: Staphylococcus aureus La 636; test: as above; format: cell-based; conditions: LA636
Description: as §2, §3

[11] = test system: Staphylococcus aureus La 659; test: as above; format: cell-based; conditions: LA659
Description: as §2, §3

[12] = test system: Staphylococcus aureus London CIP A.238; test: as above; format: cell-based
Description: as §2, §3

Streptococcus La 147 = test: as above; format: cell-based; conditions: LA147
Description: as §2, §3

[13] = test system: Streptococcus faecalis CIP 53.152; test: as above; format: cell-based; conditions: Enterococcus faecalis, CIP53
Description: as §2, §3

[14] = test system: Streptococcus faecalis CIP 55.142; test: as above; format: cell-based; conditions: Enterococcus faecalis, CIP55
Description: as §2, §3

[15] = test system: Streptococcus pyogenes CIP. 56.1; test: as above; format: cell-based
Description: as §2, §3

[16] = test system: Streptococcus pyogenes CIP. 56.41; test: as above; format: cell-based
Description: as §2, §3

[17] = test system: Streptococcus pyogenes CIP. 56.43; test: as above; format: cell-based
Description: as §2, §3

[18] = test system: Streptococcus pyogenes CIP. 56.45; test: as above; format: cell-based
Description: as §2, §3

[19] = test system: Streptococcus pyogenes CIP. A 241; test: as above; format: cell-based; conditions: CIP.A241
Description: as §2, §3

[20] = cited from earlier work
Gram+ bacteriae = conditions: commercialized drug; cited from earlier work
Gram+ strains = test: Antibacterial activity in vitro, summary for Gram+ strains; format: cell-based, Gram+ bacteriae; conditions: compared with B.11
Description: as §2, §3

[21] = test system: Gram- strains such as Neisseria; test: Antibacterial activity in vitro, summary for some Gram- strains; format: cell-based
Description: as §2, §3

[22] = test system: acute infections of the otorhinolaryngological system and bronchopathies; test: Clinical assays in acute infections of the otorhinolaryngological system and bronchopathies; format: in vivo, human; conditions: humans, acute ENT infections and bronchopathies
Description: Clinical assays carried out on human beings suffering from infectious disease caused by Gram+ bacteriae and Neisseria Gram- bacteria gave fair and good results, especially when the pharmaceutical composition according to the invention which was administered suitably contained from 0.1 to 95% by weight of at least one compound of the formula I.
For oral administration, the composition is preferably formulated as tablets or gelatine-coated capsules, each tablet or capsule containing from 10 to 200 mg of the active ingredient. For the treatment of infections due to Gram+ bacteriae and Neisseria, such tablets or capsules are suitably administered to human patients at the rate of 2 to 8 tablets or capsules per day, for at least 4 days and preferably from 4 to 7 days, in particular for compound B.602.

[23] = parameters: species or system mice; conditions: mouse, in vivo
Description: as §1

| Structure (SMILES) | LD50 at 336 h [1] [mg/kg] | MIC [5] [µg/mL] | MIC [6] [µg/mL] | MIC [7] [µg/mL] | MIC [8] [µg/mL] | MIC [9] [µg/mL] | MIC [10] [µg/mL] | MIC [11] [µg/mL] | MIC [12] [µg/mL] | MIC (Streptococcus La 147) [µg/mL] | MIC [13] [µg/mL] | MIC [14] [µg/mL] | MIC [15] [µg/mL] | MIC [16] [µg/mL] | MIC [17] [µg/mL] | MIC [18] [µg/mL] | MIC [19] [µg/mL] | other results |
| --- | --- | --- | --- | --- | --- | --- | --- | --- | --- | --- | --- | --- | --- | --- | --- | --- | --- | --- |
| CC(C)(C)CC(C)(C)c1ccc(O)c(Cc2ccc(Cl)cc2Cl)c1 [Clofoctol, 2-(2,4-dicholrobenzyl)-4-(1,1,3,3-tetramethylbutyl)-phenol] | 2000 | 4 (≈ 10.9 µM) | 4 (≈ 10.9 µM) | 5 (≈ 13.7 µM) | 8 (≈ 21.9 µM) | 6 (≈ 16.4 µM) | 5 (≈ 13.7 µM) | 6 (≈ 16.4 µM) | 3 (≈ 8.21 µM) | 7 (≈ 19.2 µM) | 6 (≈ 16.4 µM) | 5 (≈ 13.7 µM) | 3 (≈ 8.21 µM) | 4 (≈ 10.9 µM) | 2 (≈ 5.47 µM) | 2 (≈ 5.47 µM) | 4 (≈ 10.9 µM) | dose at which it begins to induce diarrhoea [2]: 800 mg/kg; reduction of rectal temperature [3]: reduces the rectal temperature for 48 hours; liver hypertrophy [4]: induces a slight liver hypertrophy; hydrosolubility / hydrodispersibility [20]: not naturally hydrosoluble nor hydrodispersible; effectiveness in infectious diseases caused by Gram+ bacteriae (Gram+ bacteriae): particularly effective |
| CC(C)(C)CC(C)(C)c1ccc(O)c(C(=NO)c2ccc(Cl)cc2Cl)c1 [Example 1, 2',4'-dichloro-2-hydroxy-5-(1,1,3,3-tetramethylbutyl)-benzophenone-oxime] | > 4000 | 1 (≈ 2.54 µM) | 4 (≈ 10.1 µM) | 3 (≈ 7.61 µM) | 4 (≈ 10.1 µM) | 3 (≈ 7.61 µM) | 4 (≈ 10.1 µM) | 5 (≈ 12.7 µM) | 1 (≈ 2.54 µM) | 2 (≈ 5.07 µM) | 3 (≈ 7.61 µM) | 2 (≈ 5.07 µM) | 2 (≈ 5.07 µM) | 3 (≈ 7.61 µM) | 1 (≈ 2.54 µM) | 1 (≈ 2.54 µM) | 2 (≈ 5.07 µM) | activity against Gram+ strains (Gram+ strains): more active than B.11; activity against some Gram- strains [21]: active against some Gram- strains such as Neisseria; clinical result as a bactericidal agent [22]: very interesting as a bactericidal agent; tolerance compared with B.11 [23]: better tolerated than B.11 |

Reference: patent US4678810A, “Medical uses of halogenobenzohenone-oxime derivatives” (Institut de Recherches Chimiques et Biologiques of Appliques, priority 1983, dated 1987)
